Entries after “also recorded” stand apart in the source; their conditions may differ.
Key:
BP1 cells [1] = experiment: Tumor invasion in Matrigel, BP1; type: cell-based, human; conditions: 5 uM, 5 days
Protocol: (§1) BP1 cells were cultured in the presence of vehicle (left) or 5 uM CB7993113 in Matrigel for 5 days. CB7993113 is not toxic at the highest doses tested, 10 uM.
BP1 cells were cultured in Matrigel in the presence of vehicle, 5 μM DIM (16A), vehicle or 5 uM CB7950998 (16B) for 5 days.

AhR [2] = target: T1, AhR (Mus musculus, UniProt P30561); experiment: AhR nuclear translocation, western immunoblot of Hepa-1 nuclear and cytoplasmic extracts; type: cell-based; parameters: endogenous in cells; conditions: Hepa-1 cells
Protocol: To determine whether the inhibitory action of CB7993113 involves binding to the AhR and blocking its translocation to the nucleus, Hepa-1 cells were treated with 1-10 uM CB7993113. One hour later they were challenged with a strong AhR agonist and prototypic PAH, DMBA (1 uM). After a 30 minute incubation period, cells were harvested and extracts from cell nuclei and cytoplasm were obtained. These extracts then were probed for levels of AhR and, as a loading control, β-actin, by western immunoblotting.
Hepa-1 cells were treated with vehicle or 1-10 μM CH223191. One hour later cells were treated with 0.1 μM DMBA (where indicated) and incubated for 30 minutes. Cells were harvested and proteins from the cytoplasm and nuclei were extracted. Extracted proteins were subjected to AhR- or, as loading control, β-actin-specific western immunoblots. Data are representative of 3 independent experiments.

AhR [3] = target: T2, AhR (Homo sapiens, UniProt P35869); experiment: Radiolabeled TCDD displacement from in vitro translated AhR, sucrose gradient; type: binding; parameters: made in house; conditions: fractions 13-16 of sucrose gradient
T2 sequence (P35869 11-848): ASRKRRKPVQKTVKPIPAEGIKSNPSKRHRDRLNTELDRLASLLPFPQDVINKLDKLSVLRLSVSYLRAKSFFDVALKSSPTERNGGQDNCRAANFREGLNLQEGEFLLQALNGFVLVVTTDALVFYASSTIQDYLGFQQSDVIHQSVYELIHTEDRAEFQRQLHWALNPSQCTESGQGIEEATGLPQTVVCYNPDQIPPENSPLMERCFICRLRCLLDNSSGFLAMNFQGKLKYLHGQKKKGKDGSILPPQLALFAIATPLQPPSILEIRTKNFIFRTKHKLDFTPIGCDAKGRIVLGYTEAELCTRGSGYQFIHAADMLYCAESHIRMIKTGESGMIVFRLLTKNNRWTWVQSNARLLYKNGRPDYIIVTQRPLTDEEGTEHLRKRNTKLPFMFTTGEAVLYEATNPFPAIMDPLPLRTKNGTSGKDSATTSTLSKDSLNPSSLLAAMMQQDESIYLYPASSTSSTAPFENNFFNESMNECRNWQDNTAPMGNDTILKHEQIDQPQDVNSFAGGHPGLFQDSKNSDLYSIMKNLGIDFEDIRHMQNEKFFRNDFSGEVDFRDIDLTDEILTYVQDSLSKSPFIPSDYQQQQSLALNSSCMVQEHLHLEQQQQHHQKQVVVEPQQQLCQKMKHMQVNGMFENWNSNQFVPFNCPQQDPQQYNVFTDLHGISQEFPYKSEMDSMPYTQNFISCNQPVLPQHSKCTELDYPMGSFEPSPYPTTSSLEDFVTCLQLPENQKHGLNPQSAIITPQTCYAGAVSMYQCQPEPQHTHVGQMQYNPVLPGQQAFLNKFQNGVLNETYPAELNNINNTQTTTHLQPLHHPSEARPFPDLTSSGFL
Description: The compounds CMLD-2166 and CB7993113 were mixed with in vitro translated human AhR and radiolabeled TCDD (dioxin), a high affinity AhR ligand. Complexes then were separated on a sucrose gradient and fractions assayed for radioactivity. A decrease in the signal (displacement of radiolabeled TCDD) can be seen in fractions 13-16 indicating binding of the test compound to the AhR and displacement of TCDD.

[4] = tested on: bone marrow hematopoietic cells; experiment: DMBA-induced bone marrow toxicity in mice; type: in vivo, C57BL/6 mice; conditions: 48 hours; for DMBA-induced decrease in total number of bone marrow cells: 50 mg/kg i.p., 50 mg/kg DMBA; for DMBA-induced decrease in pro B cells, pre-B cells and neutrophils: co-administration with 50 mg/kg DMBA
Protocol: To test the ability of one of the lead compounds described herein, CB7993113, to be absorbed and to function effectively in vivo, C57BL/6 mice were treated with an acutely toxic dose (50 mg/kg) of DMBA, a potent AhR agonist, in the presence or absence of CB7993113 or another AhR inhibitor, CH223191. […] This decrease in the total number of bone marrow cells was prevented by the i.p. injection of 50 mg/kg CH223191 or CB7993113.
Mice then were injected with 50 mg/kg DMBA. Mice were sacrificed 48 hours later. Bone marrow hematopoietic cells were expunged from the bone and viable cells counted. Data are presented as the average number of viable white blood cells+SE. **p<0.01, ***P<0.001, student's t-test. […] C57BL/6 mice (6/group) were treated as in FIG. 8A. The percentage and number of viable bone marrow pro B cells, pre B cells, and neutrophils were determined 48 hours later by flow cytometry. Data are presented as the average number of viable cells of each subtype+SE. (*p<0.05, **P<0.01, student's t-test).

BP1 cells [5] = experiment: Toxicity of CB7993113 at highest doses tested; type: cell-based, human; conditions: 10 uM
Protocol: as §1

PPARγ = target: T3, PPARγ (Homo sapiens, UniProt P37231); experiment: PPARγ-driven luciferase reporter in Cos 7 cells; type: cell-based; conditions: rosiglitazone 1 μM, 18-24 hrs
T3 construct: expressed in transfected cells; host or cells: Cos 7 cells
T3 sequence (P37231 1-505): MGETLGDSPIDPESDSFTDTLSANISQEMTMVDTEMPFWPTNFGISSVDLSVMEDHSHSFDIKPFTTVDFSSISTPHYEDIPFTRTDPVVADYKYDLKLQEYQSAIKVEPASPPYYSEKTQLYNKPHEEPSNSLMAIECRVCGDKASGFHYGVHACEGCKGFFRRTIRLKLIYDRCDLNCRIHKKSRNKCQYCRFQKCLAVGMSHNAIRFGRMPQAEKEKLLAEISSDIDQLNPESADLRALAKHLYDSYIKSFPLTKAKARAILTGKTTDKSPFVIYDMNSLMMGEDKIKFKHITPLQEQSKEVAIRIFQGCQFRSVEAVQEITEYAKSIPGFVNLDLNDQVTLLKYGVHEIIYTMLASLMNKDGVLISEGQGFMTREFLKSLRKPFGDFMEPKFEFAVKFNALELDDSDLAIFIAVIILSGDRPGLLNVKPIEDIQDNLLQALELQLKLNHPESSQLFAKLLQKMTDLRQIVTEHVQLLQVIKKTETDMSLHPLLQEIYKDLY
T3 sequence (P19793 1-462 partner): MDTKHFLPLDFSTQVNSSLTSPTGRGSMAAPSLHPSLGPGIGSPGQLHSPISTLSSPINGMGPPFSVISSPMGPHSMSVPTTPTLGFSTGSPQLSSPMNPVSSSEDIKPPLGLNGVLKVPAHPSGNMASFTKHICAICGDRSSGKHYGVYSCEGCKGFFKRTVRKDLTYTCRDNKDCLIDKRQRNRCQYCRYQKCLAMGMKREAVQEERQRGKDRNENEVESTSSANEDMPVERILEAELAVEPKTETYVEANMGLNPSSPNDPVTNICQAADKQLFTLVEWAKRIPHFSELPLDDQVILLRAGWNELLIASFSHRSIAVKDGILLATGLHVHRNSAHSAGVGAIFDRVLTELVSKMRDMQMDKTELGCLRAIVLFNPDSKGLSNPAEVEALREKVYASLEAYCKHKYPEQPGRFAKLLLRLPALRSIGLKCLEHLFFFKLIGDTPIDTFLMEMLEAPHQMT
Protocol: Cos 7 cells were transfected with the peroxisome proliferator activator receptor-γ (PPARγ), its dimerization partner, RXR, a PPARγ-driven luciferase reporter construct, and a control CMV-driven GFP reporter for 24 hours. Cells then were treated with a vehicle, 10 μM AhR inhibitor CH223191, 50 μM AhR inhibitor CMLD-2166, or 10 μM AhR inhibitor CB7993113. (These represent high AhR inhibitor doses). Rosiglitazone (1 μM), a strong PPARγ agonist, was added 1 hour later and cells assayed 18-24 hrs thereafter for PPARγ-driven reporter activity (luciferase intensity), normalized to the GFP signal. Data were pooled from 4 experiments. Unlike their ability to block AhR-driven reporter activity, the AhR inhibitors had no effect on the PPARγ-driven reporter activity.

Hs578T cells [6] = experiment: Tumor invasion in Boyden Chambers; type: cell-based, human; conditions: 10^−5M, 2 days
Protocol: (§2) Hs578T cells were cultured in Boyden Chambers (FIG. 7A) or in Matrigel (FIG. 7B) in the presence of DMSO, 10^−5M CMLD-2166, CMLD-2186 (a 2166 enantiomer) or CH223191 and assayed for invasion 2 (Boyden Chambers) or 7 (Matrigel) days later.

AhR [7] = target: T2, AhR; experiment: AhR-responsive pGudLuc reporter, constitutive AhR activity; type: cell-based; parameters: malignant BP1 and immortalized MCF-10F cells that were transiently transfected with AhR-responsive pGudLuc; endogenous in cells; host or cells: BP1 and MCF-10F cells; conditions: BP1 and MCF-10F cells, 24 hrs
AhR [8] = target: T1, AhR; experiment: High throughput AhR-driven GFP reporter bioassay in H1G1 cells; type: cell-based; parameters: H1G1 cells expressing an AhR-driven GFP reporter construct; endogenous in cells; host or cells: H1G1 cells; conditions: titered in presence of 1 μM BNF; read-out: AhR Antagonists IC50
Protocol: Using a high throughput reporter-based AhR bioassay and cell viability assay, over 4000 CMLD compounds, FDA drugs, and NCI-generated extracts were screened, and 8 non-toxic AhR inhibitors (2 from the CMLD) and 19 AhR agonists (14 from the CMLD) were identified (as shown in, e.g., FIGS. 4A-4B). IC50 values for inhibitors and EC50 values for agonists were determined (Table 1). One of these discovered inhibitors (CMLD-2166), its enantiomer (CMLD-2186), and a previously described lipid soluble AhR inhibitor (CH223191) blocked tumor growth and invasion (FIGS. 5A-5B and 7A-7B).
FIGS. 4A-4B show high-throughput screening (HTS) for AhR agonists and antagonists. […] A dark circle identifies an AhR inhibitor while the light circle indicates an agonist. […] Over 4,000 compounds were screened in this semi-automated assay.

Hs578T cells [9] = experiment: Tumor invasion in Matrigel, Hs578T; type: cell-based, human; conditions: 10^−5M, 7 days
Protocol: as §2

BP1 and MCF-10F cells = experiment: 3H-thymidine incorporation cell growth; type: cell-based, human; conditions: 18 hrs

T1 sequence (P30561 10-805 limits assumed): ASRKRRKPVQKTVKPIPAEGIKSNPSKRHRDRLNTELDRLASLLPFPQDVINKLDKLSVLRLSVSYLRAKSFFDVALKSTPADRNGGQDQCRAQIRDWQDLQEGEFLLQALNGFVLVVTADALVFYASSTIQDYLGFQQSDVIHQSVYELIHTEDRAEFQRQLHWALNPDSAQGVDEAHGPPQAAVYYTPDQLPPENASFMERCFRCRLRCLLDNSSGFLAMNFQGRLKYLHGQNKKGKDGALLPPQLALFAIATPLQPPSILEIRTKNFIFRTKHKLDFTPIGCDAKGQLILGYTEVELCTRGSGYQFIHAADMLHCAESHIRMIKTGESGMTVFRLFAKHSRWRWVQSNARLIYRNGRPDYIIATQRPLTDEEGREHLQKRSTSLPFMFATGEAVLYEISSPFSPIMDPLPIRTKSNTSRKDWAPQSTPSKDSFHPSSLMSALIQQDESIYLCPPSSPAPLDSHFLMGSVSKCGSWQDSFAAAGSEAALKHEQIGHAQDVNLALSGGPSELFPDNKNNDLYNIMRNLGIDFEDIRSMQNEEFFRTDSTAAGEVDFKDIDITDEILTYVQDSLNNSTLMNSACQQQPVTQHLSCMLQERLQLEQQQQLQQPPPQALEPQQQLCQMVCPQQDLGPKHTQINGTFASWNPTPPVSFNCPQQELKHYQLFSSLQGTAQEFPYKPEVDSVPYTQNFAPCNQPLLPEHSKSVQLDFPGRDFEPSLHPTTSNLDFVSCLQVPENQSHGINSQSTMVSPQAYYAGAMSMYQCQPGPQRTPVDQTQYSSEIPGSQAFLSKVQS
T1 sequence (P11499 whole entry partner): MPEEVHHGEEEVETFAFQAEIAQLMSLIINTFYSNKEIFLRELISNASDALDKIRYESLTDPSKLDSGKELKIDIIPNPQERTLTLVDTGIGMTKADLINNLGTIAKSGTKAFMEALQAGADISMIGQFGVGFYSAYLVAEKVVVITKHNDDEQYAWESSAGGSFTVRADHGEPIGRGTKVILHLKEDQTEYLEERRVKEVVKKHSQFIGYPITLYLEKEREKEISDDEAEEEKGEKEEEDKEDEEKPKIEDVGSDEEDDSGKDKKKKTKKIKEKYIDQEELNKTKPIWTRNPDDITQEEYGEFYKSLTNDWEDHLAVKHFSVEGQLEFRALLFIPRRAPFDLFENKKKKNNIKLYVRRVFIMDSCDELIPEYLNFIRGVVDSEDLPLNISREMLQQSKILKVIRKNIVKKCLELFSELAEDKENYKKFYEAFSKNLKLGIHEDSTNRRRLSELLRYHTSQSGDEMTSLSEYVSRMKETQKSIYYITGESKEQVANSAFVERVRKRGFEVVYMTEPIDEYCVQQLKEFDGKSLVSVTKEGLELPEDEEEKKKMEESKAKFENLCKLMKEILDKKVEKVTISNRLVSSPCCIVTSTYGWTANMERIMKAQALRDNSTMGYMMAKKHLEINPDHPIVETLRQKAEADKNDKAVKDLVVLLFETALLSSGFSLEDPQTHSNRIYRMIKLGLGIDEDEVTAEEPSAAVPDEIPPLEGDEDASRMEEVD
T1 sequence (O08915 whole entry partner): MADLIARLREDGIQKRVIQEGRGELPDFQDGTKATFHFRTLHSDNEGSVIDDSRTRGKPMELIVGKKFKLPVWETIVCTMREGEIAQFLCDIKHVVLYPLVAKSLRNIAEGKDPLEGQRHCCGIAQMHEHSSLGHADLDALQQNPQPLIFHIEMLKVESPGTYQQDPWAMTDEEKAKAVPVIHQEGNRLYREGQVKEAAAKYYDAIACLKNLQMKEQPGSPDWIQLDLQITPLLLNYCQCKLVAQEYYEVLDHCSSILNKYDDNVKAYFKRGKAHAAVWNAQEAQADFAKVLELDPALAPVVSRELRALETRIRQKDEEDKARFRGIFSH

| SMILES | BP1 tumor invasion in Matrigel (BP1 cells [1]) | binding to AhR (displacement of radiolabeled TCDD) (AhR [3]) | DMBA-induced decrease in total number of bone marrow cells [4] | DMBA-induced decrease in pro B cells, pre-B cells and neutrophils [4] | PPARγ-driven reporter activity (PPARγ; 10 μM) | tumor invasion, Boyden Chambers (Hs578T cells [6]) | constitutive AhR activity (pGudLuc activity) (AhR [7]) | IC50 (AhR [8]) [nM] | tumor invasion, Matrigel (Hs578T cells [9]) | cell growth (3H-thymidine incorporation) (BP1 and MCF-10F cells) | further results |
| --- | --- | --- | --- | --- | --- | --- | --- | --- | --- | --- | --- |
| CCOC(=O)Oc1c(-c2ccc(Cl)cc2)oc2ccccc2c1=O [CB7950998] | reduce |  |  |  |  |  |  |  |  |  |  |
| NC(=O)COc1c(-c2ccc(Br)o2)oc2ccccc2c1=O [CB7993113] | blocks | bind human AhR | prevented | completely blocked | no effect |  |  |  |  |  | DMBA-induced AhR translocation to the nucleus (AhR [2]; 1-10 uM, 1 h before DMBA, 30 min): completely blocked; translocation of the AhR to the nucleus, inhibitor alone (agonist activity) (AhR [2]; no DMBA): no effect; toxicity (BP1 cells [5]): not toxic |
| Cc1ccccc1N=Nc1ccc(NC(=O)c2ccnn2C)c(C)c1 [CH223191, reference compound] |  |  | prevented | completely blocked | no effect | inhibit tumor invasion | inhibit | 330 | inhibit tumor invasion | blocked; also recorded: inhibit |  |
| COc1ccc2c(c1)C(=O)[C@H](OC(=O)NS(=O)(=O)c1ccc(C)cc1)[C@@H](c1ccc(OC)c(Br)c1)O2 [CMLD-2166] |  | bind human AhR |  |  |  | inhibit tumor invasion | inhibit | 200 | inhibit tumor invasion | blocked | cell growth (3H-thymidine incorporation) (BP1 and MCF-10F cells; listed as CMLD 2166): inhibit; PPARγ-driven reporter activity (PPARγ; 50 μM): no effect |
| c1ccc2c(Cc3c[nH]c4ccccc34)c[nH]c2c1 [DIM, 3,3′-diindolylmethane, reference compound] | reduce |  |  |  |  |  |  |  |  |  |  |
